The values that follow are results of earlier work, collected in patent publication US20230364026A1, “[…] NANOPARTICLE FORMULATIONS OF CANNABINOIDS AND C[…] WITH REDUCED OSTWALD RIPENING FOR ORAL, INHALATION, NASAL AND […] DELIVERY” (Luminus Biosciences, Inc., priority 2020, published 2023).

The structures appear in SMILES notation.

For data set [1] the following is noted: administered orally, human gastrointestinal tract.
For data set [2] the following is noted: pH values ranging from 1.2 to 7.0.
For data set [3] the following is noted: self-experiment, compared to THC.

`CCCCCCC(C)(C)c1cc(O)c2c(c1)OC(C)(C)C1CCC(=O)CC21` (racemic) [Nabilone, (±)-trans-3-(1,1-dimethylheptyl)-6,6a,7,8,10,10a-hexahydro-1-hydroxy-6-6-dimethyl-9H-dibenzo[b,d] pyran-9-one]: the oral absorption result in data set [1] is “completely absorbed”. Also, the solubility in water entry in data set [2] was “less than 0.5 mg/L”.

As for `CCCCCCCC(C)(C)c1ccc([C@H]2CCC[C@@H](O)C2)c(O)c1` [CP 47,497-C8], the “duration of effects in humans” value in data set [3] is 5 to 6 h.

In the case of `CCCCCn1cc(C(=O)c2cccc3ccccc23)c2ccccc21` [JWH-018], the “duration of effects in humans” value in data set [3] was 1 to 2 h.
